According to ChEMBL document CHEMBL5614463, “Discovery of Imidazo[1,2-a]pyrazine Derivatives as Potent ENPP1 Inhibitors” (J Med Chem, 2024):

Columns and labels:
Autotaxin = Autotaxin (Mus musculus, UniProt Q9R1E6); assay: Inhibition of N-terminal recombinant mouse ENPP2 […] extracted from HEK293F cells using p-Nph-5'-TMP as substrate by absorbance based analysis; assay type: cell-free
[1] = biological target: T1, Ectonucleotide pyrophosphatase/phosphodiesterase family member 3 (Homo sapiens, UniProt O14638); assay: Inhibition of recombinant human ENPP3 using p-Nph-5'-TMP as substrate by absorbance based analysis
T1 sequence (O14638 whole entry): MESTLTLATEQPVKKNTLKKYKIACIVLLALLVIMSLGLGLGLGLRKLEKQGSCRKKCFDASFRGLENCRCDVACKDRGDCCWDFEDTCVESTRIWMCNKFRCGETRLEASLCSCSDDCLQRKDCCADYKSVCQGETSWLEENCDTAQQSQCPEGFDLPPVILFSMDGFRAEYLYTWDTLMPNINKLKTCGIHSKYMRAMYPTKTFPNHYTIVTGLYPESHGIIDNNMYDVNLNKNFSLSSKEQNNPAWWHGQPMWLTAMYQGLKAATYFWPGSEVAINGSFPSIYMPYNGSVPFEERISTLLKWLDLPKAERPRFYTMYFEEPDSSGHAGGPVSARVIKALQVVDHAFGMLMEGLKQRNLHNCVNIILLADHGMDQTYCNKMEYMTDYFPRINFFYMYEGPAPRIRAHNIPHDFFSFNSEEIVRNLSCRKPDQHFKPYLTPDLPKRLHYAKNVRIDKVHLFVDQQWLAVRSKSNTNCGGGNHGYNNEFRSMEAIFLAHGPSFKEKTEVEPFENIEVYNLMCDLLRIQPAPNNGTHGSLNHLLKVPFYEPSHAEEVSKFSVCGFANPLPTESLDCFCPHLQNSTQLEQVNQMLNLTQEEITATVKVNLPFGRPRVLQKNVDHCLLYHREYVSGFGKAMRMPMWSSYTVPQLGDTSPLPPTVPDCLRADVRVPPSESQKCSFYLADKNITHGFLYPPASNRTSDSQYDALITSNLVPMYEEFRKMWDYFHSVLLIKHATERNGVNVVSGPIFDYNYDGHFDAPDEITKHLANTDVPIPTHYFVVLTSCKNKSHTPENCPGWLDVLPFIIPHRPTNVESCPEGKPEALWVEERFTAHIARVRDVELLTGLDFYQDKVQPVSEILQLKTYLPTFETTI

| Structure (SMILES) | IC50 (Autotaxin) | IC50 [1] |
| --- | --- | --- |
| COc1ccc2c(-c3ccc(CNS(N)(=O)=O)cc3)ccnc2c1 | > 10000 nM | 1270 nM |
| COc1cccc(F)c1-c1nc(C(=O)Nc2cc(F)ccc2N2CCC(NS(N)(=O)=O)CC2)cn2ccnc12 | > 10000 nM | 2520 nM |
